Test results published in patent publication US5362739A (priority 1990, dated 1994).
Structures can show the parent of a compound that is named as a salt. Where two headings read alike, the source gives them in different places.

Tests used:
muscarinic receptors [1] = test: Radio ligand binding: displacement of the muscarinic agonist 3H-Oxotremorine-M (3H-OXO-M); set-up: species or system rat (Hooded Lister); conditions: 2 nM 3H-OXO-M, rat cerebral cortex membranes, 2 mM magnesium chloride, 37° C., 30 min
muscarinic receptors [2] = type: binding, rat (Hooded Lister); conditions: 0.27 nM 3H-QNB, rat cerebral cortex membranes, 37° C., 30 min

Row | Compound | IC50 (muscarinic receptors [1]) | IC50 (muscarinic receptors [2])
1 | CON=CC1=CC2CCN(C1)C2 (mixture of isomers) [Compound E4, (±) syn-1-Azabicyclo[3.2.1]oct-3-en-3-ylcarboxaldehyde-O-methyloxime hydrochloride salt] | 70 nM | 1250 nM
2 | CON=C(Cl)C1=CC2CCN(C1)C2 (racemic) [Compound E2, (±) 1-Azabicyclo[3.2.1]oct-3-en-3-yl-N-methoxycarboximidoyl chloride oxalate salt] | 100 nM | 1100 nM
3 | CON=C(F)C1=CC2CCN(C1)C2 (racemic) [Compound E3, (±) 1-Azabicyclo[3.2.1]oct-3-en-3-yl-N-methoxcarboximidoyl fluoride oxalate salt] | 26 nM | 320 nM
4 | CON=C(C)C1=CC2CCN(C1)C2 (racemic) [Compound E5, (±)trans 3-Acetyl-1-azabicyclo[3.2.1]oct-3-ene-O-methyloxime hydrochloride salt] | 175 nM | 1450 nM
5 | CON=C(C#N)C1=CC2CCN(C1)C2 (racemic) [Compound E6, (±)-α-(Methoxyimino)-α-(1-azabicyclo[3.2.1]oct-3-en-3-yl)acetonitrile oxalate salt] | 21 nM | 330 nM
